Earlier results as cited in US20100239707A1 (priority 2007, published 2010).
“Also recorded” adds a separate entry of the source.

Legend:
[1] = system: myotubes
[2] = system: cell culture cells
[3] = not given; remark: listed apart in the source
[4] = unprimed

Molecule	effect on muscle fibers / myotubes [1]	other results
[Ca+2].[Cl-].[Cl-] [anhydrous CaCl2, CaCl2]		intravenous LD50: about 40 mg/kg
COc1cc2c(c(OC)c1OC)-c1ccc(OC)c(=O)cc1[C@@H](NC(C)=O)CC2 [colchicine]	causes the disassembly of myotubes	
OO [hydrogen peroxide]		concentration inducing apoptosis [2]: micromolar concentrations
COc1ccc(CNc2nc(NCc3ccc(OC)cc3)c3ncn(C(C)C)c3n2)cc1 [myoseverin]	result in cell fission with cells that exhibit DNA sysnthesis and cell growth	
COC(=O)Nc1nc2ccc(C(=O)c3cccs3)cc2[nH]1 [nocodazole]	causes the disassembly of myotubes; also recorded: result in cell fission with cells that exhibit DNA sysnthesis and cell growth	
CC(=O)O[C@H]1C(=O)[C@@]2(C)[C@H]([C@H](OC(=O)c3ccccc3)[C@]3(O)C[C@H](OC(=O)[C@H](O)[C@@H](NC(=O)c4ccccc4)c4ccccc4)C(C)=C1C3(C)C)[C@]1(OC(C)=O)CO[C@@H]1C[C@@H]2O [taxol]	causes the disassembly of myotubes	intravenous LD50: 33 mg/kg
CC[C@]1(O)C[C@@H]2CN(CCc3c([nH]c4ccccc34)[C@@](C(=O)OC)(c3cc4c(cc3OC)N(C)[C@H]3[C@@](O)(C(=O)OC)[C@H](OC(C)=O)[C@]5(CC)C=CCN6CC[C@]43[C@@H]65)C2)C1 [vinblastine]	causes the disassembly of myotubes	oral LD50 [3]: 300 to 400 mg/kg
lipopolysaccharide [LPS]		LD50 [4]: ~1 mg/kg
